Data: a melting point compilation (Tetko et al.; mined from patent text by program, amines drawn as free bases though some values may be those of a salt)

| melting point [°C] | Structure (SMILES) |
| --- | --- |
| 149 to 150 | COc1ccc(CCC(=O)Nc2cc3c(c(C)c2C)OC(C)(C)C3c2ccc(C)cc2)cc1 (configuration not stated) |
| 101 to 102 | CCCc1c(OCCCCCOc2ccc3c(c2CCC)OC(C(=O)O)CC3)ccc(CC)c1O (configuration not stated) |
| 192 to 193 | O=Cc1cn(-c2ccc(Cl)cc2)nc1-c1ccc([N+](=O)[O-])o1 |
| 119 to 121 | CCn1nc(C)c2c(Cl)c(CO)cnc21 |
| 131 to 133 | O=c1oc(=O)n(Cc2ccco2)c2ccccc12 |
| 128 to 131 | c1ccc(OCc2nnn[nH]2)cc1 |
| 87 to 88 | CCC(CC)Oc1nn(C)c(=O)c2c1ccn2-c1c(C)cc(C)cc1C |
| 133 to 134 | CCOC(=O)CNc1ncccc1NC(=O)c1ccc(Cl)cc1 |
| 165 to 175 | Nc1n[nH]c2ccc(Br)cc12 |
| 99 | CCCC(=O)NCCC1CCc2c(OC)ccc3ccc(OC)c1c23 (configuration not stated) |
| 138 | CS(=O)(=O)c1ccc(-c2cc(CCCO)nn2C2CCCCC2)cc1 |
| 68 to 69 | CCCCc1nc2c(C(F)(F)F)cccc2c(O)c1C(=O)OCC |
| > 300 | O=C(Nc1nnn[nH]1)c1csc(-c2ncccc2O)n1 |
| 137 | CN1CCC(C2c3sccc3C=Cn3ncnc32)CC1 (configuration not stated) |
| 109 to 110 | Clc1ccc(-c2nc(COCc3ccccc3)ns2)nn1 |
| 91 | CC(C(C=Cc1ccc(Cl)cc1)OCc1ccc(Cl)cc1)n1cncn1 (configuration not stated) |
| 219 | O=C(Nc1c(Cl)ccc2nc(N3CCNCC3)ccc12)C1(C2CCCCC2)CC1 |
| 120 to 125 | [O-][N+]1=C(c2ccccc2)c2cc(Cl)ccc2CCC1 |
| 154 | Nc1cccc(C(=O)NCC23CC4CC(CC(C4)C2)C3)c1Cl |
| > 225 | Cc1sc2c(Br)c3ccccc3c(-c3cc(C(C)C)c(OS(=O)(=O)c4ccc(C(=O)O)c(O)c4)c(C(C)C)c3)c2c1C |
| 180 to 184 | O=c1c(Cl)c(OCc2ccc(F)cc2F)ccn1Cc1cccc2c1CCNC2 |
| 139 to 141 | O=C1NC=C(C(=O)O)CN1 |
| 164 to 166 | COc1ccc2c(=O)c(CO)cn(C)c2c1 |
| 208 to 209 | O=Cc1cn(-c2ccccc2)nc1-c1ccc([N+](=O)[O-])o1 |

| melting point [°C] | Structure (SMILES) |
| --- | --- |
| 235 to 237 | Cc1ccccc1C(=O)Nc1ccc(C(=O)N2CCCC(OCC(=O)N3CCSCC3)c3ccccc32)cc1 (configuration not stated) |
| 168 to 170 | N#CNc1cc(F)ccc1N1CCOCC1 |
| 76 | NC(=O)CCNc1ccc(OC(F)(F)F)cc1 |
| 127 to 128 | N#Cc1ccccc1OCCCC(=O)O |
| 119 to 120 | CCOC(=O)c1c(C(=O)C(=O)OC)c2cc(Cl)ccc2n1C |
| 212 to 214 | O=c1c2cc(F)c(N3CCCC3)cc2n(-c2ccc(F)cc2F)c(=O)n1OCc1ccccc1 |
| 127 to 128 | CC(C)c1ccc(-c2ccc(C3N=C(c4ccccc4Cl)CC3C#N)cc2)cc1 (configuration not stated) |
| 165 to 168 | CCn1c(CC(=O)NOCc2ccccc2)nc2cc(F)c(N3CCN(C)CC3)cc21 |
| 153 to 154 | Cc1nccn1-c1ccc(COc2cccc(C3(C#N)CCOCC3)c2)cc1 |
| 158 to 160 | CCOC(=O)c1ccc2nc(-c3ccc(C)cc3)c(CN(C)C(=O)CC(C)C)n2c1 |
| 55 | COC(=O)CCNC(=O)C1CCCN1C(=O)OCc1ccccc1 (configuration not stated) |
| > 300 | COc1ccc2c(c1)c(-c1cc3c(C(=O)O)ccnc3[nH]1)cn2C |
| 98 to 102 | CCCCCCCCOc1cc2cc(CO)c(CO)c(-c3ccnc(NN)c3)c2cc1OC |
| 101 to 103 | COC1(OC)C(=O)N(C)c2ccc(I)cc21 |
| 117 to 119 | C[Si](C)(C)c1ccc(Cl)c(Cl)c1C(=O)O |
| 176 to 178 | COc1cc2ncnc(N3CCC(CCN4C=CC=NS4(=O)=O)CC3)c2cc1OC |
| 125 to 127 | CCCc1c(OCC(O)COc2ccc3c(=O)cc(C=CC(=O)OCC)oc3c2CCC)ccc(C(C)=O)c1O (configuration not stated) |
| 195 | O=C1Cc2cc(NC(=O)C(=O)N3CCC(Cc4ccc(Cl)cc4)CC3)ccc2N1 |
| 96.5 to 98 | O=C1c2ccccc2C(=O)N1Cc1noc(CCl)n1 |
| 151 to 153 | CCOc1c(C)c(N2CCN(c3ccc(OC)cc3)CC2)c(C)c2c1OC(C)(C)C2 |
| 143 to 145 | COc1cccc2c(=O)c(CSC)cn(C)c12 |
| 111 to 112 | C1=CC2OC1c1cc3c(cc12)OCO3 |
| 109 to 110 | CC(C)COC(=O)C1(c2onc(-c3ccc(O)cc3)c2-c2ccccc2)CC1 |
| 160 to 161 | COc1ccc(C2Sc3c(ccc4ccccc34)N(CCN(C)C)C(=O)C2O)cc1 (configuration not stated) |

| melting point [°C] | Structure (SMILES) |
| --- | --- |
| 212 to 214 | Cc1cc(C2C=CCC2)c(S(C)(=O)=O)cc1C(=O)N=C(N)N (configuration not stated) |
| 140 to 146 | O=c1[nH]nc(-c2ccc(NN=C(c3ccc(O)cc3O)c3ccc(O)cc3O)cc2)c2ccccc12 |
| 166 to 167 | COCCNC(=O)c1n[nH]cc1NC(=O)c1ccccn1 |
| 184 | CN(C)CCNS(=O)(=O)c1cccc(NC(=O)c2cnn3c(C(F)F)cc(-c4ccc(C(F)(F)F)cc4)nc23)c1 |
| 143 to 144 | COc1cc(F)c(C(=O)Nc2c(Cl)cncc2Cl)cc1OC1CCCC1 |
| 172 | CC(C)(C)c1cc(Nc2ccccc2C#N)cc(C(C)(C)C)c1O |
| 95 to 96 | CC(Nc1ccc([N+](=O)[O-])cc1)c1ccccc1 (configuration not stated) |
| 158 | FC(F)(F)c1ccc(-c2cc(C(F)(F)F)n3cncc3n2)cc1 |
| 114 to 115 | CCCCc1nc2cccc(C=O)c2n1Cc1ccccc1Cl |
| 183 to 184 | COCCOc1ccc(/C=C/C(=O)NS(=O)(=O)c2ccc(F)cc2)c(Oc2ncc(C(F)(F)F)cc2Cl)c1 |
| 98 to 100 | CCC(CC)Nc1cc(C)nc(Oc2c(C)cccc2C)c1N |
| 119 to 122 | COc1cccc(CCc2ccccc2C(=O)O)c1 |
| 75 to 80 | O=P(Oc1ccccc1)(Oc1ccc(-c2cssc2=S)cc1)Oc1ccc(-c2cssc2=S)cc1 |
| 138 to 140 | CC(C)(C)N1CN(Cc2ccccc2)C(N)=C2C=NN=C21 |
| 134 to 136 | NS(=O)(=O)OCCOc1ccc(-n2cncn2)cc1 |
| 165 to 168 | O=C1N(C(c2ccccc2)c2ccccc2)c2ccccc2C12COc1cc3c(cc12)OCCCO3 (configuration not stated) |
| 37 to 38.5 | CCC(C)Nc1c([N+](=O)[O-])cc(C)c(C)c1[N+](=O)[O-] (configuration not stated) |
| > 200 | N#Cc1cc(-c2ccc(Cl)c(Cl)c2)[nH]c1Br |
| 194 | Cc1nc(-c2ccc(S(C)(=O)=O)cc2)c(-c2ccc(-c3cscn3)cc2)s1 |
| 117 to 119 | CCCC(=O)c1cnc2c(C)cccc2c1Nc1ccccc1CC |
| 284 to 285 | C#CCn1c(Br)c(C[C@H](NC(C)=O)C(=O)OC)c2c(Br)c(OC)c(Br)cc21 |
| 176 to 190 | Nc1nc2c(s1)CC(CCN1CCN(c3ccccn3)CC1)CC2 (configuration not stated) |
| 187 to 189 | C[Si](C)(C)C#Cc1c[nH]c(=O)[nH]c1=O |
| 96 to 97 | CCN(C)c1nc2ccccc2n2cnc(-c3nc(C4CC4)no3)c12 |

| melting point [°C] | Structure (SMILES) |
| --- | --- |
| 118 to 120 | Cn1nc(-c2c(F)cccc2Cl)nc1-c1ccc(Cl)nc1 |
| > 230 | O=C(Nc1cccc(Cl)c1)c1ccccc1CN1C(=O)C2(COc3cc4c(cc32)CCO4)c2ccccc21 (configuration not stated) |
| 129 to 130 | CCNC(=O)Nc1ccc(CC(CO)NCC(O)COc2ccccc2)cc1 (configuration not stated) |
| 185 to 187 | COc1ccc(-c2[nH]cnc2-c2cc(OC)c(Br)c(OC)c2)cc1O |
| 135 to 136 | CC(=O)CCS(=O)(=O)c1ccc(C=C(C)c2ccc3c(c2)C(C)(C)CCC3(C)C)cc1 |
| 127 to 128 | NC(=O)CNC(=O)c1cccc(-c2cccc3c(F)c(Cc4cccc(C(F)(F)F)c4)sc23)c1 |
| 112 to 113 | Clc1c2ccccc2nc2occc12 |
| 95.5 to 97 | CCOC(=O)CC(NC(=O)c1ccc(F)cc1)C(=O)c1ccco1 (configuration not stated) |
| 215 to 216 | COC(=O)c1ccc(Cc2cccc3ccc(C(N)=O)cc23)c(OC)c1 |
| 66 to 67 | CCOC(=O)c1ccc2ncccc2c1 |
| 54 to 55 | O=Cc1cc(Oc2ccccc2)ccc1O |
| 128 to 129 | CCOC(=O)c1nc2c(Cl)cccc2n(-c2ccc(OC)cc2)c1=O |
| 180 | CCCN(CCC)c1nc2c(Cl)nccc2c(=O)[nH]1 |
| 64 to 65 | O=C(c1c(F)cccc1F)C1CC1c1ccc(Br)cc1 (configuration not stated) |
| 76 to 80 | C=C(C)C(=O)Oc1ccc(/C=C/C(=O)OC)cc1 |
| 106 to 108 | Cc1oc(-c2cccs2)nc1COc1ccc(CON=C(CCCCCCC(=O)O)c2ccccc2)cc1 |
| 277 to 280 | Cc1cc(C#N)cc(C)c1Nc1nc(Nc2ccc(C#N)cc2)ncc1Br |
| 116 | CCCC[C@H](NC(=O)[C@H](CC(C)C)NC(=O)c1c(F)cccc1F)C(=O)CSCc1ccco1 |
| 161 to 163 | Cc1c(-c2ccc(O)cc2)n(Cc2ccc(/C=C/C(N)=O)cc2)c2ccc(O)cc12 |
| 160 to 162 | COC(=O)c1[nH]c(=S)n(Nc2cccc(Cl)c2)c1C |
| 188 to 191 | N=C(NC(=O)Nc1ccc([N+](=O)[O-])cc1)c1ccccc1 |
| 181 to 182 | CCn1nc(OC2COCCC2=O)c(-c2ccc(F)cc2)c1-c1ccc(S(C)(=O)=O)cc1 (configuration not stated) |
| 159 to 162 | O=c1ncc(Cl)cn1CC(O)CCl (configuration not stated) |

| Structure (SMILES) | melting point [°C] |
| --- | --- |
| CSc1nc2cccc3c2n1CC(N(C)C)C3 (configuration not stated) | 84 to 86 |
| Oc1ccc(Br)cc1Cc1ncc[nH]1 | 163 to 169 |
| CN1C2CCC1CC(n1cc(-c3ccc(Oc4ccccc4)cc3)c3c(N)ncnc31)C2 (configuration not stated) | 238 to 250 |
| Cc1ccc(-c2ccnc3c(C(=O)c4cccs4)cnn23)cc1NC(=O)NC(C)C | 225 to 227 |
| O=C1c2c(O)cccc2C(SCCS)c2cccc(O)c21 | 133 to 134 |
| N#Cc1cccc(N2C(=O)CC(=O)Nc3c2ccc2ccccc32)c1 | 220 to 222 |
| Fc1ccc2[nH]cc(C3=CCN(CC4CCc5ccccc5O4)CC3)c2c1 (configuration not stated) | 172 to 175 |
